Measurements from US10344330B2, “Glatiramer acetate response biomarker mRNA potency assay” (Mylan Inc., priority 2013, dated 2019).

B1: MBP: myelin basic protein, a negative control (protein, UniProt P02686 1-304, looked up)
Myelin basic protein: MGNHAGKRELNAEKASTNSETNRGESEKKRNLGELSRTTSEDNEVFGEADANQNNGTSSQDTAVTDSKRTADPKNAWQDAHPADPGSRPHLIRLFSRDAPGREDNTFKDRPSESDELQTIQEDSAATSESLDVMASQKRPSQRHGSKYLATASTMDHARHGFLPRHRDTGILDSIGRFFGGDRGAPKRGSGKDSHHPARTAHYGSLPQKSHGRTQDENPVVHFFKNIVTPRTPPPSQGKGRGLSLSRFSWGAEGQRPGFGYGGRASDYKSAHKGFKGVDAQGTLSKIFKLGGRDSRSGSPMARR

How the values were obtained:
[1] = test system: IL-2 secreted by LN cells; test: IL-2 secretion by GA-stimulated LN cells, MSD 9-plex ELISA (Example II); assay type: cell-based, mouse; conditions: 21 hr
Procedure: (§1) Animals at 8 weeks of age were immunized by injection into four footpads using a 1 mL syringe with a 27-G, 1⁄2-inch needle. […] Ten days post-immunization, immunized animals were sacrificed via cervical dislocation. […] The LN cells were isolated by pressing the LN with the plunger end of a sterile syringe. […] Trypan blue exclusion method was used to determine the cell density of viable cells in the suspension. […] Cat. […] LN cells were plated into a 24-well tissue culture plate for drug stimulation. […] Cell debris was removed by centrifugation at ca. 200×g for 10 minutes at 4° C. Cytokines secreted by treated cells were determined on the day of collection by ELISA using mouse TH 1/TH 2 9-Plex Tissue Culture Kit (Meso Scale Discovery; Cat No. […]-2, Lot #: K0032839) which detects Th1 cytokines (IFN-γ, IL-2, IL-12, IL-1β, TNF-α, CXCL1) and Th2 cytokines (IL-4, IL-5 and IL-10). For IFN-γ, culture media also were assayed at 45 hours using mouse IFN-γ Tissue Culture Kit (Meso Scale Discovery; Cat No. […] For the positive control, 0.5 mL of LN cells (5×10^6 cells/well) were treated with 0.5 mL of ConA (5 μg/mL). For the negative control, 0.5 mL of LN cells (5×10^6 cells/well) were treated with 0.5 mL of MBP (20 μg/mL). The LN cells with mock stimulation (enriched DCCM1 medium) were used to monitor the background level of a cytokine. For the cytokine assays, calibration standards or samples were incubated in the MULTI-SPOT or the SINGLE-SPOT plate and each cytokine bound to its corresponding capture antibody. All test samples were run in duplicate. The amount of each cytokine on its distinct spot was quantified using a cytokine-specific detection antibody labeled with MSD SULFO-TAGTM reagent. Electrochemiluminescent signals from immobilized SULFO-TAGTM-labeled complexes on each spot from each well were captured by the MSD SECTOR Imager 6000, which produces a signal directly proportional to the amount of captured cytokine in a test sample. The levels of cytokines in test samples were derived by interpolation from calibration curves with calibration standards of known concentrations using reagents provided with the MSD kits. Kits were used according to the manufacturer's protocols. […] Data are expressed as a response ratio of cytokine concentration in treated cell medium to control DCCM1 medium.

[2] = test system: IL-1b secreted by LN cells; test: IL-1b secretion by GA-stimulated LN cells, MSD 9-plex ELISA (Example II); assay type: cell-based, mouse; conditions: 21 hr
Procedure: as §1

[3] = test system: KC (CXCL1) secreted by LN cells; test: KC (CXCL1) secretion by GA-stimulated LN cells, MSD 9-plex ELISA (Example II); assay type: cell-based, mouse; conditions: 21 hr
Procedure: as §1

[4] = test system: mouse IL-2 mRNA in primary LN cells; test: Validation: mouse IL-2 mRNA by real-time PCR in LN cells of GA-immunized SJL/J mice, three experiments (Example IV); assay type: cell-based; conditions: for IL-2 mRNA Fold Change: normalized to GAPDH; for induction of IL-2 mRNA: 20 μg/mL GA, 6 hours
Procedure: Three experiments were conducted using one batch of GA (Mylan GMA). The primary LN cells were stimulated by incubation with 6 concentrations (0.3 to 20 μg/mL) of the GA for 6 hours at 37° C. Total RNA was isolated from LN cells stimulated with GA or controls. cDNA was synthesized from the RNA and the mRNA levels of seven mouse cytokines, IL-2, IL-4, IL-5, IL-10, IL-13, interferon (IFN)-γ and tumor necrosis factor (TNF)-α, were quantitatively measured by a real-time PCR method.
Female SJL/J mice at 8-9 weeks of age were immunized by injection into four footpads using a 1 mL syringe with a 27-G, ½-inch needle. Each mouse received a total injection volume of 0.1 mL of GMA emulsified in CFA (about 10 μL into each of the front footpads and 40 μL into each of the hind footpads). Animals were immunized on Day 0. After injection, animals were placed back in their cages and housed ≤6 animals per cage.
Immunized animals were sacrificed by cervical dislocation on Day 10 following immunization. […] After centrifugation at about 200×g for 10 minutes at 4° C., the cell pellet was re-suspended in 40 mL of DCCM-1 medium for cell counting. A Trypan blue exclusion method was used to determine the cell density of viable cells in the suspension. After cell counting, the LN cells were suspended in enriched DCCM-1 medium at density of 7.5×10^6 cells/mL. LN cells (0.12 mL) were plated into each well of 96-well tissue culture plates.
Dilutions of GA (Mylan GMA) were prepared using enriched DCCM-1 medium as the diluent. GA dilutions (0.12 mL) were added in the assigned wells of 96-well tissue culture plates. The same volume of LN cells (0.12 mL) isolated from immunized animals was added to the assigned wells. A positive control and a negative control were always performed in the same assay by treating LN cells with 2.5 μg/mL ConA and 10 μg/mL MBP, respectively. The LN cells with mock stimulation protocols (enriched DCCM-1 medium) were used to monitor the background mRNA level of a cytokine. The plates were incubated at 37° C. in a humidified 5% CO2 incubator for 6 hr.
At the end of incubation time, culture medium from stimulated cells was removed by aspiration and the cells were lysed using Qiagen or Promega lysis buffer. The lysate was transferred to an RNeasy Mini column (Qiagen) or wells of the SV 96 Binding Plate (Promega) for RNA isolation and cDNA synthesis. All tested samples were run in triplicate.
The SV 96 Total RNA Isolation System (Promega; Cat. No. Z3505) was used for total RNA isolation. Assay procedures were carried out according to each manufacturer's protocol. RNA samples were stored at −70° C. until use. […] The assay procedure was carried out according to the manufacturer's protocol.
The plate was centrifuged at 2000 rpm for 2 minutes at 4° C. to spin down the contents and eliminate air bubbles. Samples were prepared and run in a 96-well plate using a Life Technologies Real-Time PCR system (previously Applied Biosystems; Model No. 7500) according to the manufacturer's recommendation. The mix for the reference gene was prepared in the same way using the reference gene primer.
A relative quantitation method was used to analyze changes in mIL-2, mIL-4, mIL-5, mIL-10, mIL-13, mIFN-γ and TNF-α expression in GA treated samples relative to the untreated control (Enriched DCCM-1 treated) samples using the following program:
Levels of mouse cytokine amplicons were normalized to an internal probe level (GAPDH) from the same samples. The following equations were used to calculate the relative increase in response to GA stimulation compared to the control sample (Enriched DCCM1 sample): […]

[5] = BALB/cByJ, immunized GA Intraplantar
[6] = BALB/cByJ, immunized Mannitol Intraplantar
[7] = C57BL10J, immunized Mannitol Intraplantar
[8] = CD-1, immunized GA Intraplantar
[9] = CD-1, immunized Mannitol Intraplantar
[10] = C57BL10J, immunized GA Intraplantar

Molecule	IL-2 secretion response ratio (treated cell medium to control DCCM1 medium) [1, 5]	IL-2 secretion response ratio (treated cell medium to control DCCM1 medium) [1, 6]	IL-2 secretion response ratio (treated cell medium to control DCCM1 medium) [1, 7]	IL-2 secretion response ratio (treated cell medium to control DCCM1 medium) [1, 8]	IL-2 secretion response ratio (treated cell medium to control DCCM1 medium) [1, 9]	IL-1b secretion response ratio (treated cell medium to control DCCM1 medium) [2, 6]	IL-1b secretion response ratio (treated cell medium to control DCCM1 medium) [2, 10]	IL-1b secretion response ratio (treated cell medium to control DCCM1 medium) [2, 7]	IL-1b secretion response ratio (treated cell medium to control DCCM1 medium) [2, 8]	IL-1b secretion response ratio (treated cell medium to control DCCM1 medium) [2, 9]	KC secretion response ratio (treated cell medium to control DCCM1 medium) [3, 5]	KC secretion response ratio (treated cell medium to control DCCM1 medium) [3, 6]	KC secretion response ratio (treated cell medium to control DCCM1 medium) [3, 7]	KC secretion response ratio (treated cell medium to control DCCM1 medium) [3, 8]	KC secretion response ratio (treated cell medium to control DCCM1 medium) [3, 9]	also measured
Concanavalin A [ConA, reference compound]	229.32	281.66	28.71	85.01	68.22	7.83	2.21	1.40	8.50	3.37	1.52	1.00	1.34	1.56	2.55	IL-2 mRNA Fold Change ([4]; Experiment 1, 2.5 μg/mL): 147.1 fold; IL-2 mRNA Fold Change ([4]; Experiment 2, 2.5 μg/mL): 72.0 fold; IL-2 mRNA Fold Change ([4]; Experiment 3, 2.5 μg/mL): 188.6 fold
L-glutamic acid polymer with L-alanine, L-lysine and L-tyrosine, acetate (salt) [GA]	–	–	–	–	–	–	–	–	–	–	–	–	–	–	–	induction of IL-2 mRNA ([4]; SJL/J, Exp 1): 31.7 fold; induction of IL-2 mRNA ([4]; SJL/J, Exp 2): 27.8 fold; induction of IL-2 mRNA ([4]; SJL/J, Exp 3): 42.0 fold; induction of IL-2 mRNA (in words) ([4]; SJL/J, different concentrations of GA vs unstimulated LN cells): robust induction
B1	0.97	0.97	0.98	0.98	1.28	0.87	0.99	0.92	1.37	1.20	1.04	0.96	1.12	1.05	1.09	IL-2 mRNA Fold Change ([4]; Experiment 1, 10 μg/mL): 1.0 fold; IL-2 mRNA Fold Change ([4]; Experiment 2, 10 μg/mL): 0.9 fold; IL-2 mRNA Fold Change ([4]; Experiment 3, 10 μg/mL): 0.8 fold; IL-2 mRNA expression level in response to MBP treatment ([4]; SJL/J, MBP 10 μg/mL, all PCR runs): ≤ 2 fold
